Laboratory results taken from patent US9631001B2, “Peptide antagonists of the vasopressin-2 receptor” (COMMISSARIAT A L'ENERGIE ATOMIQUE ET AUX ENERGIES …, priority 2012, dated 2017).

Legend:
V2R = V2R (Homo sapiens, UniProt P30518); test: AVP-induced MAP kinase phosphorylation (HTRF) in tsA cells expressing V2R; type: cell-based; parameters: expressed in transfected cells
Experimental: Eight hours and twenty-four hours later, the cells were starved with serum-free medium and stimulated another twenty-seven hours later. […] In a 384 well plate, to 16 μl of lysed cells first 2 μl of the antibody against phosphorylated ERK labeled with acceptor fluorophore (AC-ERK-P-d2 emitting at 665 nm) and then 2 μl of the antibody against total ERK labeled with donor fluorophore (AC-ERK-K emiting at 620 nm) were added. When ERK phosphorylation occurs, the acceptor in close vicinity of the donor is able to emit at 665 nm producing the FRET signal. The increase in the 665/620 ratio corresponds to the increase in MAP kinase phosphorylation. Two hours later, RT-FRET was measured on a laser-based HTRF® reader Rubystar with Rubystar software (BMG LABTECH).

CD1^pcy/pcy mice [1] = test: Cyst formation in pcy mice (kidney weight, cyst number); type: in vivo, mouse; settings: 0.1 μmol/kg/day i.p., 99 days
Experimental: The toxin was dissolved in 0.9% NaCl at a concentration of 1 mg/ml. 10 week-old CD1^pcy/pcy mice were injected intraperitoneally with the toxin at a dose of 0.1 μmol toxin/kg of body weightday for 99 days. Then the mice were perfusion-fixed with 4% paraformaldehyde/1× phosphate-buffered saline, the kidneys and hearts were taken out and weighed. Then, the ratio of kidney weight or heart weightbody weight and kidney weightheart weight was calculated to evaluate an effect of the toxin on cyst formation. The kidneys were embedded in paraffin. Transverse kidney sections were stained with hematoxylin and eosin. Cyst number was determined using the program ImageJ and related to the size of the section thus arriving at the relative cyst number.

V1bR = molecular target: T1, V1bR (Homo sapiens, UniProt P47901); test: 3H-AVP competition binding on V1bR membranes; settings: toxin at 1 μM
T1 sequence (P47901 1-424): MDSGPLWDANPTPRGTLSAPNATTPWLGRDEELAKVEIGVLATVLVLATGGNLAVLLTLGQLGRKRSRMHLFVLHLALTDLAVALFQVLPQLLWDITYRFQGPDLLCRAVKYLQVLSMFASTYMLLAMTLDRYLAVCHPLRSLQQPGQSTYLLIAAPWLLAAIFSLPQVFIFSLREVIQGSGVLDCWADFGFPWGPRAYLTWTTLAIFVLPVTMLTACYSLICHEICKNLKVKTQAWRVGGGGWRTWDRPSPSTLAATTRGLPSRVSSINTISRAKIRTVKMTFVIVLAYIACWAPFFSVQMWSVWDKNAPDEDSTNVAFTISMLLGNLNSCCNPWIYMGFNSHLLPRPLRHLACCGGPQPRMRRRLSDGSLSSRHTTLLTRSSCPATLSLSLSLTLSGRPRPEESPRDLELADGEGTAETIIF
Experimental: (§1) Membranes from cells expressing vasopressin receptors were purchased from […] (Courtaboeuf, France). Binding experiments were performed with ^3H-AVP ([…], Courtaboeuf, France) in 96-well plates. Reaction mixtures contained 50 mM Tris-HCl, pH 7.4, 10 mM MgCl2 and 1 g/L BSA in a final volume of 100 μL. Plates were incubated for 3 h at room temperature. Binding reactions were stopped by filtration through a GF/C filter pre-soaked in 0.5% polyethyleneimine on a cell harvester ([…], Courtaboeuf, France) and plates were dried. Ultimagold O (25 μl; […]) was added to each well and samples were counted using a TopCount counter ([…], Courtaboeuf, France) (Counting yield of 55%). […] A one-site inhibition mass action curve was fitted to inhibition binding data using Kaleidagraph (SYNERGY SOFTWARE, Reading, Pa., USA). IC50 values were converted to Ki for competition experiments using the Cheng-Prusoff equation (Cheng et al., Biochem. Pharmacol., 1973, 22, 3099-3108).

CD1^pcy/pcy mice [2] = test: Diuretic and urine osmolarity effect, single and increasing doses; type: in vivo, mouse
Experimental: The toxin was dissolved in 0.9% NaCl at a concentration of 1 mg/ml. Adult CD1^pcy/pcy (Takahashi et al., J. Urol., 1986, 135, 1280-1283, and J. Am. Soc. Nephrol., 1991, 1, 980-989 and Olbrich et al., Nature Genetics, 2003, 34, 455-459) and adult C57BL/6 mice were injected intraperitoneally and subcutaneously with the toxin at doses of 1, 0.1 and 0.01 μmol toxin/kg of body weight. One, three and five days after the first injection the mice were kept for 24 hours in metabolic cages. The collected urine was centrifuged for 30 minutes at 14,000 rpm. Urine osmolality (mOs/kg) was determined with a Knauer osmometer, urine volume (μl) was measured with a pipette.

157 GPCRs = test: FLIPR agonist/antagonist profiling on 157 GPCRs; type: cell-based; settings: 1 μM U-Da2a
Experimental: Percentage activation and percentage inhibition values were determined on each GPCR. […] Percentage inhibition values were determined upon addition of a reference agonist at an estimated EC80 concentration. All wells were prepared using EMD Millipore's GPCRProfiler® Assay Buffer. The GPCRProfiler® Assay Buffer was a modified Hanks Balanced Salt Solution (HBSS) where HBSS was supplemented to contain 20 mM HEPES and 2.5 mM Probenecid at pH7.4. […] The agonist assay was a total of 180 seconds and was used to assess each compound's ability to activate each GPCR assayed. […] The antagonist assay was conducted using the same assay plate and the same apparatus that was used for the agonist assay. All assay plate data were subjected to appropriate baseline corrections. After baseline corrections were applied, maximum fluorescence values were exported and data processed to calculate percentage activation (relative to Emax reference agonist and vehicle control values), percentage inhibition (relative to EC80 and vehicle control values), and additional statistical values (i.e. Z′, percentage variation between replicate data values) to assess the quality of each plate. Where assay plate data were rejected, additional experiments were conducted.

[3] = molecular target: vasopressin V2 receptor subtype (V2R) (Homo sapiens, UniProt P30518); test: 3H-AVP competition binding on V2R membranes; settings: affinity for the V2R, equilibrium binding, 3H-AVP (FIG. 2)
Experimental: Reaction mixtures contained 50 mM Tris-HCl, pH 7.4, 10 mM MgCl2 and 1 g/L BSA in a final volume of 100 μL. Plates were incubated for 3 h at room temperature. Binding reactions were stopped by filtration through a GF/C filter pre-soaked in 0.5% polyethyleneimine on a cell harvester ([sequence], Courtaboeuf, France) and plates were dried. […] A one-site inhibition mass action curve was fitted to inhibition binding data using Kaleidagraph (SYNERGY SOFTWARE, Reading, Pa., USA).

V1aR = V1aR (Homo sapiens, UniProt P37288); test: 3H-AVP competition binding on V1aR membranes; settings: toxin at 1 μM
Experimental: as §1

hV2-Rluc receptor = molecular target: T2, hV2-Rluc receptor (Homo sapiens, UniProt P30518); test: β-arrestin-1-YFP mobilization (BRET) to V2-Rluc in tsA cells; type: cell-based
T2 construct: expressed in transfected cells; host or cells: tsA cells (HEK293 derivative), transiently transfected
Experimental: 2.5×10^6 tsA cells, a transformed human kidney (HEK293) cell line stably expressing an SV40 temperature sensitive T antigen (ECACC), transiently transfected with 150 ng of pRK5 expression plasmid for hV2Rluc ([sequence] #556104, BD BIOSCIENCE; Terrillon et al., Mol. Endocrinol., 2003, 17, 677-691) and with 1 μg of an expression plasmid for β-arrestin-1-YFP ((β-arrestin cloned into pEYFP-N1 (CLONTECH); Scott et al., J. Biol. Chem., 2002, 277, 3552-3559) were seeded in 6-well plates. 48 h after transfection, cells were washed with KREBS buffer containing 146 mM NaCl, 4.2 mM KCl, 0.5 mM MgCl2, 1 mM CaCl2, 10 mM HEPES pH 7.4, 1 mg/ml glucose and resuspended in 1 ml of this buffer. Bioluminescence Resonance Energy Transfer (BRET™) measurements between the V2-Rluc and β-arrestin-1-YFP were performed in 96-well plates with a final volume of 50 μl containing 30 μl of cell suspension (75,000 cells), 10 μl of KREBS buffer (control condition) or the mix of ligands containing either increasing concentrations of vasopressin (stimulated control condition) or in the presence of increasing concentrations of toxin (stimulated condition with inhibitor).

CD1^pcy/pcy mice [4] = test: Long-term administration experiment (99 days); type: in vivo, mouse; settings: 0.1 μmol/kg/day i.p.
Experimental: The toxin was dissolved in 0.9% NaCl at a concentration of 1 mg/ml and administered intraperitoneally to adult CD1^pcy/pcy mice at a dose of 0.1 μmol/kg/day. At 0, 30 70 and 99 days, urine was collected for 24 hours in metabolic cages and urine volume and urine osmolarity were determined.

[5] = i.p. or s.c. injection at 1 μmol/kg, 24 h urine, vs basal state

V1aR, sequence (P37288 whole entry): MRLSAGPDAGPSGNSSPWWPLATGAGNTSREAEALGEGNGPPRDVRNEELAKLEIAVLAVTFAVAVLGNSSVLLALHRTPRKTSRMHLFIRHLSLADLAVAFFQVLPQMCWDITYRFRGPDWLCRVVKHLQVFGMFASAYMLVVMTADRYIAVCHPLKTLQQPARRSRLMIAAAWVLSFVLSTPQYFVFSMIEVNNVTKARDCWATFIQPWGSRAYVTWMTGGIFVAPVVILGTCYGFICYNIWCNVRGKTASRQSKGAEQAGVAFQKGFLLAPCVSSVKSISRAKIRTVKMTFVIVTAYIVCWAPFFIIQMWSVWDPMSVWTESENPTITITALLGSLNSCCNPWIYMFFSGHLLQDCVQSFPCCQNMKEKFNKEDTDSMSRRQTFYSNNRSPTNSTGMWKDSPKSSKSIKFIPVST
V2R, sequence (P30518 whole entry): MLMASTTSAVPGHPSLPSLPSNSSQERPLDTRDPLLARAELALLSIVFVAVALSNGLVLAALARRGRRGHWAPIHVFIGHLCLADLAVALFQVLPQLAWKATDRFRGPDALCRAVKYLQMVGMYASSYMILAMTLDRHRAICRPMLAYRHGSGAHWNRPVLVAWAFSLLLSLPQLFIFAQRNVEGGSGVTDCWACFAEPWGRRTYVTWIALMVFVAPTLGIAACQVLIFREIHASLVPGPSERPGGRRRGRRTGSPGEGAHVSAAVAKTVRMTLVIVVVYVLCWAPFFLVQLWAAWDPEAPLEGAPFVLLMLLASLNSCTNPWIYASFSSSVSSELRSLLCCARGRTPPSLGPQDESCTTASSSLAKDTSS
vasopressin V2 receptor subtype (V2R), sequence (P30518 whole entry): as above
T2 sequence (P30518 whole entry): as above

For `CC[C@H](C)[C@@H]1NC(=O)[C@H]([C@@H](C)O)NC(=O)[C@H](CO)NC(=O)[C@H](Cc2ccccc2)NC(=O)[C@H](CCCNC(=N)N)NC(=O)[C@H](CC(N)=O)NC(=O)[C@H](C)NC(=O)[C@H](CC(N)=O)NC(=O)CNC(=O)[C@H](CCCCN)NC(=O)[C@@H]2CSSC[C@@H]3NC(=O)[C@@H]4CCCN4C(=O)CNC(=O)[C@@H]4CCCN4C(=O)[C@H](CCCCN)NC(=O)[C@H](C(C)C)NC(=O)[C@@H]4CCCN4C(=O)[C@H](CC(C)C)NC(=O)[C@H](CC(N)=O)NC(=O)[C@@H](NC(=O)[C@H](Cc4ccccc4)NC(=O)[C@H](CO)NC(=O)[C@@H]4CCCN4C(=O)[C@@H](N)CCCNC(=N)N)CSSC[C@@H](C(=O)N[C@H](C(=O)NCC(=O)O)C(C)C)NC(=O)[C@H]([C@@H](C)O)NC(=O)[C@H](CCCNC(=N)N)NC(=O)[C@H](CCCNC(=N)N)NC(=O)[C@H](CSSC[C@H](NC(=O)[C@H](CCCCN)NC(=O)[C@H](CC(N)=O)NC(=O)[C@H]([C@@H](C)O)NC(=O)[C@H](CCCCN)NC(=O)[C@H](CCC(N)=O)NC(=O)[C@H](CO)NC(=O)[C@H](Cc4ccc(O)cc4)NC(=O)[C@H](Cc4ccc(O)cc4)NC(=O)[C@H](Cc4ccccc4)NC(=O)[C@H](C)NC(=O)[C@H](CO)NC(=O)[C@H](Cc4ccccc4)NC(=O)[C@H](Cc4ccccc4)NC(=O)CNC(=O)[C@H](CC(N)=O)NC3=O)C(=O)N[C@@H](Cc3c[nH]cn3)C(=O)N[C@@H](CO)C(=O)N[C@@H](Cc3ccccc3)C(=O)N[C@@H]([C@@H](C)O)C(=O)N[C@@H](Cc3ccc(O)cc3)C(=O)NCC(=O)NCC(=O)N2)NC(=O)[C@H](CCCCN)NC(=O)[C@H](CCC(=O)O)NC1=O` [U-Da2a], the Kb (V2R) was 126 nM, the kidney weight (CD1^pcy/pcy mice [1]) was “reduces kidney weight” and the number of cysts (CD1^pcy/pcy mice [1]; histology) was “significantly reduces the number of cysts”. For the same molecule, the “inhibition of 3H-AVP binding to V1bR” value (V1bR) was “did not inhibit”, the “dose sufficient to observe the maximal effect” value (CD1^pcy/pcy mice [2]; i.p.) was 0.1 µmol/kg and the urine osmolarity (CD1^pcy/pcy mice [2]; [5]) was “strong decrease in osmolarity”. The urine volume (CD1^pcy/pcy mice [2]; [5]) was “strong increase in urine volume”, the “diuretic effect at increasing doses” value (CD1^pcy/pcy mice [2]; i.p., 1, 0.1 and 0.01 μmol/kg) was “dose-dependent diuretic effect” and the “urine osmolarity at increasing doses” value (CD1^pcy/pcy mice [2]; i.p., 1, 0.1 and 0.01 μmol/kg) was “decrease in urine osmolarity”. For the same molecule, the “agonist and antagonist activity on 157 GPCRs” value (157 GPCRs) was “detected only on V2R”, the Ki [3] was 2 to 5 nM and the “inhibition of 3H-AVP binding to V1aR” value (V1aR) was “did not inhibit”. For the same molecule, the Kb (hV2-Rluc receptor) was 100 nM and the “toxic effect after long-term daily injections” value (CD1^pcy/pcy mice [4]) was “No toxic effect was detectable”.
